The text below walks through data of patent US8168651B2, “Protein kinase modulators” (Cylene Pharmaceuticals, Inc., priority 2008, dated 2012).

Where two headings read alike, the source gives them in different places. Bounds are passed on as bounds.

Test [1] concerns the target recombinant human PIM1 (Homo sapiens (Human), UniProt P11309). Put plainly: PIM-1 kinase activity in cell-free in vitro assay. Format: biochemical. Particulars: for inhibition at 0.5 µM: read-out: PIM-1: % inh 500 nM.
In test [2] the test system is HCT-116 human colorectal carcinoma cells. Put plainly: Cell-proliferation assay using Alamar Blue dye.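 Further: cells exposed to compound for about 4 days, then Alamar Blue added and dye fluorescence read after about 4 h, compared with medium-only control wells.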 The format is cell-based. Particulars: Homo sapiens.
Where [3] appears, read: 500 nM compound, cell-free assay.
[4] abbreviates: HCT-116, HCT-116, second HCT-116 column (c8), read-out: HCT-116 (uM), cell proliferation modulatory activity.
[5] abbreviates: HCT-116, HCT-116, first column, read-out: HCT-116 (uM), cell proliferation modulatory activity.
[6] abbreviates: HCT-116, read-out: HCT-116 (uM), cell proliferation modulatory activity, HCT-116, second column.
Where [7] appears, read: HCT-116, read-out: HCT-116 (uM), cell proliferation modulatory activity, HCT-116, first column.
Setting [8] is: HCT-116, read-out: HCT-116 (uM), cell proliferation modulatory activity, HCT-116, second HCT-116 column (c8).
The mark [9] stands for this setting: HCT-116, HCT-116, second column, read-out: HCT-116 (uM), cell proliferation modulatory activity.

Sequence of recombinant human PIM1 (P11309 whole entry): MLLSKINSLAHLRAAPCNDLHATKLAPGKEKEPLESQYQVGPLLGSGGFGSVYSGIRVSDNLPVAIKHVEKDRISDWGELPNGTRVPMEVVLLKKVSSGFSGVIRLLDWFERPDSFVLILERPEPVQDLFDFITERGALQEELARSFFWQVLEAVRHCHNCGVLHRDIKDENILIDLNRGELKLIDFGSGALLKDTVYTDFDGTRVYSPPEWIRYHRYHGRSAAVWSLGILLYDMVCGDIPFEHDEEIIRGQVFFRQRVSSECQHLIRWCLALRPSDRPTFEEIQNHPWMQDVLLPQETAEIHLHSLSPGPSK

For the compound `CN1CCN(c2nc3cc(C(=O)NNc4ccccn4)ccc3c3sccc23)CC1`, the inhibition at 0.5 µM in test [1] (setting [3]) is -10.9%. Also, the IC50 in test [2] (setting [4]) was more than 10 µM.

`c1ccc(Nc2nc3ccccc3c3ccccc23)cc1`: the inhibition at 0.5 µM in test [1] (500 nM compound, cell-free) was -23.9%. Also, in test [2] (setting [5]), the IC50 amounted to 10 µM.

Turning to `O=C(c1cccc(Nc2nc3cc(-c4nnn[nH]4)ccc3c3sccc23)c1)N1CCOCC1`, the inhibition at 0.5 µM in test [1] (500 nM compound, cell-free) was 21%. In addition, the IC50 in test [2] (setting [6]) was more than 10 µM.

Consider `N#Cc1ccc2c(c1)nc(NCCN1CCOCC1)c1ccsc12`, for which, in test [1] (setting [3]), the inhibition at 0.5 µM was -23.8%. Moreover, the IC50 in test [2] (setting [4]) is more than 10 µM.

Turning to `COc1ccc(Nc2nc3cc(C(=O)O)ccc3c3sccc23)cc1Cl`, the inhibition at 0.5 µM in test [1] (500 nM compound, cell-free) is -2.65%. Moreover, the IC50 in test [2] (setting [7]) is 10 µM.

`CN(C)CCNC(=O)c1cccc(Nc2nc3cc(-c4nnn[nH]4)ccc3c3sccc23)c1`: in test [1] (500 nM compound, cell-free), the inhibition at 0.5 µM came to 71.1%. Moreover, the figures for the IC50 in test [1] (cell-free) and in test [2] (setting [6]) were 0.38 µM and more than 10 µM, respectively.

For `O=C(O)c1ccc2c(c1)nc(Nc1ccc(N3CCOCC3)cc1)c1ccsc12`, the inhibition at 0.5 µM in test [1] was 1.17%. The IC50 in test [2] (setting [7]) was 10 µM.

In the case of `CN(C)CCNc1nc2cc(C#N)ccc2c2ccccc12`, in test [1] (500 nM compound, cell-free), the inhibition at 0.5 µM was -63.6%. The IC50 in test [2] (setting [5]) is 0.5 µM.

Regarding `CN(C)CCNc1nc2cc(-c3nnn[nH]3)ccc2c2ccccc12`, in test [1] (500 nM compound, cell-free), the inhibition at 0.5 µM worked out at 56.9%. Besides, the IC50 in test [2] (setting [5]) came to 10 µM.

In the case of `CN(C)CCNc1nc2ccccc2c2sccc12` [drawing 1400], in test [1] (500 nM compound, cell-free), the inhibition at 0.5 µM is -24.2%. Also, the IC50 in test [2] (setting [5]) was determined as 2.3 µM.

Turning to `N#Cc1ccc2c(c1)nc(Nc1ccccc1)c1ccsc12` [drawing 1431], the inhibition at 0.5 µM in test [1] (500 nM compound, cell-free) was -22.3%. In test [2] (setting [5]), the IC50 was determined as 10 µM.

Regarding `O=C(O)c1ccc2c(c1)nc(NC1CC1)c1ccncc12` [drawing 1639], the inhibition at 0.5 µM in test [1] (setting [3]) came out at 28.1%. Besides, in test [2] (setting [8]), the IC50 is more than 10 µM.

In the case of `O=C(O)c1ccc2c(c1)nc(Nc1cccc(I)c1)c1ccsc12`, the inhibition at 0.5 µM in test [1] (500 nM compound, cell-free) came out at 40.5%. For the same compound, the IC50 in test [2] (setting [6]) is more than 10 µM.

On to `CN1CCCN(c2nc3cc(C#N)ccc3c3sccc23)CC1`, for which, in test [1] (setting [3]), the inhibition at 0.5 µM is -10%. The IC50 in test [2] (setting [4]) was 2.63 µM.

Regarding `CN(C)CCNc1nc2cc(C(=O)O)ccc2c2ccccc12` [drawing 1391], the inhibition at 0.5 µM in test [1] (500 nM compound, cell-free) was determined as 35%. The IC50 in test [2] (setting [7]) was found to be 10 µM.

With `O=C(O)c1ccc2c(c1)nc(N1CCOCC1)c1ccsc12` [drawing 1401], the inhibition at 0.5 µM in test [1] (500 nM compound, cell-free) turned out to be 35.7%. The IC50 in test [2] (setting [5]) worked out at 10 µM.

Regarding `CN(C)CCNc1nc2cc(C#N)ccc2c2cnccc12`, the inhibition at 0.5 µM in test [1] (500 nM compound, cell-free) is -11.5%. For the same compound, the IC50 in test [2] (setting [9]) came to 1.6 µM.

With `CC(=O)Nc1cccc(Nc2nc3cc(C(=O)O)ccc3c3cnccc23)c1`, in test [1] (setting [3]), the inhibition at 0.5 µM was found to be 73.6%. Besides, the IC50 in test [1] (cell-free assay) is 0.369 µM; in test [2] (setting [4]) it was more than 10 µM.

On to `O=C(O)c1ccc2c(c1)nc(Nc1cccc(C(=O)NC3CC3)c1)c1ccsc12`, for which the inhibition at 0.5 µM in test [1] (500 nM compound, cell-free) was found to be 37.5%. The IC50 in test [2] (setting [6]) is more than 10 µM.

Consider `COc1cccc(Nc2nc3cc(-c4nnn[nH]4)ccc3c3sccc23)c1`, for which, in test [1] (500 nM compound, cell-free), the inhibition at 0.5 µM stood at 55.7%. The results for the IC50 in test [1] (cell-free) and in test [2] (setting [7]) were 0.352 µM and 10 µM, respectively.

On to `COc1ccc(OC)c(Nc2nc3cc(C(=O)O)ccc3c3sccc23)c1`, for which the inhibition at 0.5 µM in test [1] (500 nM compound, cell-free) is -3.22%. Also, in test [2] (setting [7]), the IC50 stood at 10 µM.

In the case of `O=C(O)c1cc(F)cc(Nc2nc3cc(C(=O)O)ccc3c3sccc23)c1`, the inhibition at 0.5 µM in test [1] (500 nM compound, cell-free) stood at 51%. The IC50 in test [1] (cell-free) is 0.521 µM; in test [2] (setting [6]), more than 10 µM.

`COc1cc(Nc2nc3cc(-c4nnn[nH]4)ccc3c3sccc23)ccc1C`: the inhibition at 0.5 µM in test [1] (500 nM compound, cell-free) stood at 34.1%. In test [2] (setting [9]), the IC50 is more than 10 µM.

For the compound `O=C(O)c1ccc2c(c1)nc(NCc1ccccc1)c1ccncc12` [drawing 1557], the inhibition at 0.5 µM in test [1] (500 nM compound, cell-free) was found to be 44.4%. Also, the values for the IC50 in test [1] (cell-free) and in test [2] (setting [6]) were 0.675 µM and more than 10 µM, respectively.

As to `O=C(O)c1ccc2c(c1)nc(NCCc1ccccc1)c1ccsc12`, the inhibition at 0.5 µM in test [1] (500 nM compound, cell-free) is 19.9%. The IC50 in test [2] (setting [7]) was found to be 10 µM.

`CCOc1cccc(Nc2nc3cc(C(=O)O)ccc3c3sccc23)c1`: in test [1] (500 nM compound, cell-free), the inhibition at 0.5 µM was determined as 16.8%. Besides, the IC50 in test [2] (setting [6]) is more than 10 µM.

As for `O=C(O)c1ccc2c(c1)nc(N1CCc3ccccc31)c1ccsc12`, the inhibition at 0.5 µM in test [1] (500 nM compound, cell-free) is -9.95%. In addition, in test [2] (setting [7]), the IC50 came out at 10 µM.

Regarding `CN1CCN(c2nc3cc(C(=O)NCc4cccnc4)ccc3c3sccc23)CC1`, the inhibition at 0.5 µM in test [1] (setting [3]) is -16%. Besides, the IC50 in test [2] (setting [4]) was more than 10 µM.

As for `COc1ccc(Nc2nc3cc(-c4nnn[nH]4)ccc3c3sccc23)cc1`, the inhibition at 0.5 µM in test [1] (500 nM compound, cell-free) amounted to 63%. For the same compound, the figures for the IC50 in test [1] (cell-free) and in test [2] (setting [9]) were more than 1.1 µM and more than 10 µM, respectively.

On to `CN(C)CCNC(=O)c1cccc(Nc2nc3cc(C(=O)O)ccc3c3sccc23)c1`, for which the inhibition at 0.5 µM in test [1] (500 nM compound, cell-free) was 74.7%. For the same compound, the IC50 in test [1] (cell-free) was 0.436 µM; in test [2] (setting [6]), more than 10 µM.

`O=C(O)c1ccc2c(c1)nc(NCCCO)c1ccsc12`: the inhibition at 0.5 µM in test [1] (500 nM compound, cell-free) is -0.688%. Moreover, in test [2] (setting [7]), the IC50 was determined as 10 µM.

`Nc1ncc2c(n1)c(NC1CC1)nc1cc(C(=O)O)ccc12` [drawing 1644]: the inhibition at 0.5 µM in test [1] (setting [3]) came to 60.1%. Moreover, the IC50 in test [1] (cell-free assay) is 0.432 µM; in test [2] (setting [8]), more than 10 µM.

Turning to `N#Cc1ccc2c(c1)[nH]c(=O)c1ccncc12`, in test [1] (500 nM compound, cell-free), the inhibition at 0.5 µM was -16%. For the same compound, the IC50 in test [2] (setting [9]) is more than 10 µM.

Consider `c1ccc2c(c1)ncn2-c1nc2cc(-c3nnn[nH]3)ccc2c2sccc12`, for which the inhibition at 0.5 µM in test [1] (500 nM compound, cell-free) amounted to 71.6%. Also, the figures for the IC50 in test [1] (cell-free) and in test [2] (setting [9]) were more than 1.1 µM and 15 µM, respectively.

Regarding `Cc1ccccc1Nc1nc2cc(C(=O)O)ccc2c2sccc12`, the inhibition at 0.5 µM in test [1] (500 nM compound, cell-free) is -15.5%. The IC50 in test [2] (setting [7]) stood at 10 µM.

On to `O=C(O)c1ccc2c(c1)nc(Nc1ccccc1)c1ccccc12` [drawing 1394], for which the inhibition at 0.5 µM in test [1] (500 nM compound, cell-free) turned out to be 28.1%. Moreover, in test [2] (setting [7]), the IC50 turned out to be 10 µM.

On to `O=C(O)c1ccc2c(c1)nc(Nc1cccc(F)c1F)c1ccsc12`, for which the inhibition at 0.5 µM in test [1] (500 nM compound, cell-free) worked out at 72.9%. Further, the IC50 is 0.855 µM in test [1] (cell-free) and more than 10 µM in test [2] (setting [6]).

Consider `N#Cc1ccc2c(c1)nc(NCCO)c1ccsc12`, for which the inhibition at 0.5 µM in test [1] (setting [3]) was -2.91%. In addition, in test [2] (setting [4]), the IC50 was more than 10 µM.

Consider `O=C(O)c1ccc2c(c1)nc(NCc1ccccc1)c1nc(NC3CC3)ncc12` [drawing 1626], for which the inhibition at 0.5 µM in test [1] (setting [3]) was found to be 25.3%. In addition, the IC50 in test [2] (setting [8]) was more than 10 µM.

For the compound `c1ccc(Nc2nc3ccccc3c3sccc23)cc1` [drawing 1399], the inhibition at 0.5 µM in test [1] (500 nM compound, cell-free) is -22%. For the same compound, the IC50 in test [2] (setting [5]) stood at 10 µM.

For the compound `CCOc1cccc(Nc2nc3cc(-c4nnn[nH]4)ccc3c3sccc23)c1`, the inhibition at 0.5 µM in test [1] (500 nM compound, cell-free) came out at 57.7%. Further, the IC50 in test [1] (cell-free) was 0.384 µM; in test [2] (setting [6]), more than 10 µM.

With `O=C(O)CNc1nc2ccccc2c2ccccc12`, in test [1] (500 nM compound, cell-free), the inhibition at 0.5 µM was -17.5%. For the same compound, the IC50 in test [2] (setting [5]) was found to be 10 µM.

With `Fc1cc(Cl)cc(Nc2nc3cc(-c4nnn[nH]4)ccc3c3sccc23)c1`, the inhibition at 0.5 µM in test [1] (500 nM compound, cell-free) is 82%. Besides, the IC50 is 0.562 µM in test [1] (cell-free) and more than 10 µM in test [2] (setting [6]).

Regarding `O=C(O)c1ccc2c(c1)nc(Nc1cc(F)cc(C(F)(F)F)c1)c1ccsc12`, in test [1] (500 nM compound, cell-free), the inhibition at 0.5 µM stood at 82.6%. For the same compound, the IC50 in test [1] (cell-free) was 0.336 µM; in test [2] (setting [6]) it was more than 10 µM.

Regarding `c1cc2c(Nc3ccc4c(c3)OCO4)nc3cc(-c4nnn[nH]4)ccc3c2s1`, the inhibition at 0.5 µM in test [1] (500 nM compound, cell-free) is 18%. The IC50 in test [2] (setting [9]) is more than 10 µM.

In the case of `O=c1[nH]c(-c2ccc3c(c2)nc(Nc2ccccc2)c2ccsc23)no1` [drawing 1434], the inhibition at 0.5 µM in test [1] (500 nM compound, cell-free) worked out at 5.78%. Besides, the IC50 in test [2] (setting [9]) came out at 10 µM.
